Tests used:
Type in all cases: cell-based
Erwinia amylovora = assay: Minimum inhibitory concentration, agar dilution; conditions: trypticase soy agar, 2-fold serial dilutions
Streptococcus bovis = assay: Minimum inhibitory concentration, agar dilution; conditions: trypticase soy agar, 2-fold serial dilutions
Clostridium septicum = assay: Minimum inhibitory concentration, agar dilution; conditions: trypticase soy agar, 2-fold serial dilutions
Staphylococcus aureus = assay: Minimum inhibitory concentration, agar dilution; conditions: trypticase soy agar, 2-fold serial dilutions
Pseudomonas aeruginosa = assay: Minimum inhibitory concentration, agar dilution; conditions: trypticase soy agar, 2-fold serial dilutions
Salmonella typhimurium = assay: Minimum inhibitory concentration, agar dilution; conditions: trypticase soy agar, 2-fold serial dilutions
Clostridium perfringens = system: Clostridium perfringens
Bacteroides multiacidus = assay: Minimum inhibitory concentration, agar dilution; conditions: trypticase soy agar, 2-fold serial dilutions
[1] = system: Fusobacterium necrophorum; assay: Minimum inhibitory concentration, agar dilution; conditions: trypticase soy agar, 2-fold serial dilutions
Bacteroides fragilis = assay: Minimum inhibitory concentration, agar dilution; conditions: trypticase soy agar, 2-fold serial dilutions
Escherchia coli = assay: Minimum inhibitory concentration, agar dilution; conditions: trypticase soy agar, 2-fold serial dilutions
Aspergillus niger = assay: Minimum inhibitory concentration, agar dilution; conditions: trypticase soy agar, 2-fold serial dilutions
Bacillus subtilis = assay: Minimum inhibitory concentration, agar dilution; conditions: trypticase soy agar, 2-fold serial dilutions
Sarcina lutea = assay: Minimum inhibitory concentration, agar dilution; conditions: trypticase soy agar, 2-fold serial dilutions
Lactobacillus casei = assay: Minimum inhibitory concentration, agar dilution; conditions: trypticase soy agar, 2-fold serial dilutions
Actinomyces viscosus = assay: Minimum inhibitory concentration, agar dilution; conditions: trypticase soy agar, 2-fold serial dilutions
Pircularia oryzae = assay: Minimum inhibitory concentration, agar dilution; conditions: trypticase soy agar, 2-fold serial dilutions
Method: Minimum inhibitory concentrations (MIC's) were determined respectively for the crude broth material, antibiotic A26201, antibiotic A26201-1, antibiotic A26201-2, and gardimycin against a number of different microorganisms. The following techniques were used to determine the MIC's:
Thirty ml aliquots of trypticase soy agar were respectively placed in individual tubes. The agar was melted and then cooled to about 45° to 50° C. A concentration (2-fold serial dilutions of the highest concentration tested) of test antibiotic was added to each individual tube. Each test mixture was stirred and poured into an individual petri plate so that each petri plate contained a single concentration of antibiotic. When the agar hardened, the plates were inoculated with either aerobic or anaerobic test organisms. The plates inoculated with aerobic organisms were incubated at 37° C. for 24 hours and read for bacterial growth. The same plates were again incubated at 30° C. for an additional 48 hours at which point they were checked for yeast and fungal growth. The plates inoculated with anaerobic organisms were incubated at 37° C. in an anaerobic chamber and read at 48 hours.

Mucor miehei = assay: Minimum inhibitory concentration, agar dilution; conditions: trypticase soy agar, 2-fold serial dilutions
Streptococcus faecalis = assay: Minimum inhibitory concentration, agar dilution; conditions: trypticase soy agar, 2-fold serial dilutions
Streptococcus mutans = assay: Minimum inhibitory concentration, agar dilution; conditions: trypticase soy agar, 2-fold serial dilutions
Candida albicans = assay: Minimum inhibitory concentration, agar dilution; conditions: trypticase soy agar, 2-fold serial dilutions

## gardimycin
Erwinia amylovora
  MIC: > 75 µg/mL
Streptococcus bovis
  MIC: > 75 µg/mL
Clostridium septicum
  MIC: 3.1 µg/mL
Staphylococcus aureus
  MIC: 75 µg/mL
Pseudomonas aeruginosa
  MIC: > 75 µg/mL
Salmonella typhimurium
  MIC: > 75 µg/mL
Clostridium perfringens
  MIC: 3.1 µg/mL
Bacteroides multiacidus
  MIC: > 50 µg/mL
[1]
  MIC: > 75 µg/mL
Bacteroides fragilis
  MIC: > 50 µg/mL
Escherchia coli
  MIC: > 75 µg/mL
Aspergillus niger
  MIC: > 75 µg/mL
Bacillus subtilis
  MIC: 75 µg/mL
Sarcina lutea
  MIC: 1.5 µg/mL
Lactobacillus casei
  MIC: > 75 µg/mL
Actinomyces viscosus
  MIC: 12.5 µg/mL
Pircularia oryzae
  MIC: > 75 µg/mL
Mucor miehei
  MIC: > 75 µg/mL
Streptococcus faecalis
  MIC: 25 µg/mL
Streptococcus mutans
  MIC: > 75 µg/mL
Candida albicans
  MIC: > 75 µg/mL

— patent US4613503A, “Antibiotic A26201-1 and antibiotic A26201-2 produced by a novel strain of actinoplanes” (The Dow Chemical Company, priority 1984, dated 1986)
